Measured values as given in patent US20250282799A1, “SUBSTITUTED PYRIDO[4,3-d]PYRIMIDINES AS KRAS MODULATORS” (Alterome Therapeutics, Inc., priority 2023, published 2025).

Tests used:
[1] = Pharmacokinetic evaluation, single dosing (oral and intravenous) in rats; format: in vivo, male Sprague-Dawley rats; design: unit not given here; details: rat, plasma
Protocol: Pharmacokinetic profile for test compound was measured by single dosing in male Sprague-Dawley rats. Animal weights were typically over 200 grams, and animals were allowed to acclimate to their new environment for at least 3 days prior to the initiation of any studies. One set of animals was dosed intravenous with test compound, 2 mg/kg in 20% PEG400, 10% HS-15 Solutol, 70% 50 mM citrate buffer (pH 4.0). Intravenous dosing solution concentration was 1.0 mg/mL. Time of blood sampling was 5 minutes, 15 minutes, 30 minutes, 1 hour, 2 hours, 4 hours, 8 hours, and 24 hours following intravenous dosing. Another set of animals was dosed orally with test compound, 30 mg/kg in 20% PEG400, 10% HS-15 Solutol, 70% 50 mM citrate buffer (pH 4.0). Oral dosing solution concentration was 3.0 mg/mL. Time of blood sampling was 15 minutes, 30 minutes, 1 hour, 2 hours, 4 hours, 8 hours, and 24 hours following oral dosing. Blood samples (˜0.2 mL/sample) were collected via jugular vein and placed in tubes containing Heparin-Na. The blood samples in tubes were mixed and then placed on wet ice prior to centrifugation for plasma. The blood samples were centrifuged at 4000 g for 5 minutes at 4° C. to obtain plasma. The obtained plasma was separated and stored frozen at approximately −80° C.
All the plasma samples were analyzed using a Shimadzu (DGU-405) HPLC with an API 6500+MS/MS system following the manufacturer's instructions. All the analytes were detected with positive-mode electrospray ionization (ES+). A standard curve for each test compound was generated and used to measure test compound concentrations in the rat plasma samples. Based on the time course sampling, an area under the curve (AUC) was calculated for the oral group and intravenous group. The percentage of rat bioavailability is calculated based on the equation shown below.
where F is bioavailability, AUCPO is area under curve of oral dosing, AUCIV is area under curve of intravenous dosing, DoseIV is the intravenous dose and DosePO is the oral dose. The oral dosing for the experiments presented in Table 5 was performed at 10 mg/kg unless noted otherwise.

[2] = system: KRAS G12V dependent lung adenocarcinoma cell line, NCI-H441; assay: Cellular pERK (Thr202/Tyr204) FRET/HTRF assay; format: cell-based; details: Homo sapiens
Outline: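 Using a mix-and-read HTRF kit, phospho-ERK (Thr202/Tyr204) was detected in NCI-H441 lysates following 1 hr compound incubation at 37 °C, 5% CO2. Cells had been seeded overnight beforehand, and IC50 was derived by curve fitting.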

[3] = biological target: KRAS (G12V)/CRAF (Homo sapiens (Human), UniProt P01116, G12V); assay: TR-FRET biochemical KRAS:CRAF protein:protein interaction assay, KRAS (G12V); format: binding; details: GMPPNP loaded Biotin-KRAS (G12V), FLAG CRAF RBD; read-out: TR-Fret_PPI KRAS (G12V)/CRAF IC50
Protocol: (§1) The effect of test compounds on KRAS and CRAF protein: protein interaction (PPI) was measured by time resolved fluorescence resonance energy transfer (TR-FRET) Ras binding domain (RBD) assay, which uses a signal generated through fluorescent resonance energy transfer between a donor and an acceptor molecule when in close proximity to each other. Interference from buffer, media, etc. is reduced by dual-wavelength detection; the energy pulse from the excitation source is followed by a time delay, which allows interfering short-lived fluorescence to decay (Degorce et al. 2009).
(§2) The KRAS: CRAF PPI assay can be utilized to identify KRAS ‘ON’ state inhibitors, as the KRAS protein is loaded with GMPPNP (a non-hydrolyzable GTP analog), which represents the active KRAS ‘ON’ state. FLAG-tagged CRAF RBD binding to the GMPPNP loaded biotin-tagged KRAS will result in a fluorescence energy transfer from the donor (Tb-anti-FLAG, emission 620 nm) to the acceptor (SA-XL665, emission 665 nm). Disruption of KRAS and CRAF binding will reduce the TR-FRET signal.
(§3) Test compound was dissolved in DMSO to create a 1 mM stock solution. A 45 μL volume of stock solution was transferred to a 384well polypropylene plate. A 3fold, 10point dilution was performed by transferring 15 μL of test compound solution into 30 μL of DMSO.
(§4) Assay buffer A was prepared with […] Hepes, pH7.3, 0.002% Tween 20, 0.1% BSA, […] NaCl, 5 mM MgCl2, and 10 uM GMP-PNP. 4× KRAS Solution was prepared with 80 nM of Biotin-KRAS (G12D/V), GMPPNP loaded or Biotin-KRAS (WT), GMPPNP loaded protein in assay buffer A. 4× Raf RBD Solution was prepared with 400 nM FLAG CRAF RBD in assay buffer A. 2× Detection Mixture was prepared with 2 nM Tb-anti-FLAG antibody and 10 nM and 10 nM SA-XL665 in assay buffer A.
(§5) A volume of 100 nL of 100× test compound working solution or DMSO vehicle control solution was dispensed to each well (duplicate for each concentration) of a 384-well ProxiPlate Plus assay plate. A volume of 2.5 μL of 4× KRAS Solution was added to each well of the assay plate for a final concentration of 20 nM Biotin-KRAS (G12D/V),GMPPNP loaded or 20 nM Biotin-KRAS (WT), GMPPNP. For low control, add 2.5 μL of assay buffer (no KRAS protein). Pre-incubate assay plate for 30 minutes at room temperature. Following pre-incubation of test compound or DMSO with Biotin-KRAS (G12D/V),GMPPNP loaded or Biotin-KRAS (WT),GMPPNP, a volume of 2.5 μL of 4× FLAG cRAF RBD Solution was added to each well of the assay plate for a final concentration of 100 nM FLAG CRAF RBD. The assay plate was subjected to centrifuge at 1000 rpm for 1 minute and pre-incubate assay plate for 150 minutes at room temperature. Following the pre-incubation with FLAG cRAF RBD, a volume of 5 μl of 2× Detection Mixture was added to each well of the assay plate for a final concentration of 1 nM Tb-anti-FLAG and 5 nM SA-XL665. The assay plate was centrifuged at 1000 rpm for 1 minute and incubated for 90 minutes at room temperature. TR-FRET signal was measured on a BioTek Synergy Neo2 microplate reader (excitation at 340 nm, emission at 665 nn and 620 nm).
(§6) TR-FRET ratios were calculated by dividing the acceptor emission value (665 nm) by the donor emission value (620 nm) for each sample.
(§7) Percent inhibition was calculated by multiplying the normalized TR-FRET ratio by 100, where TR-FRET ratio^HIGH was the TR-FRET ratio obtained from wells with 1% DMSO and complete reaction mixture, TR-FRET ratio^LOW was the ratio obtained from wells with 1% DMSO and reaction mixture without KRAS protein and TR-FRET ratio^SAMPLE was the TR-FRET ratio from wells with test compound and complete reaction mixture. The IC50 values were calculated from normalized TR-FRET ratios with the Levenberg-Marquardt 4 parameter fitting procedure.
(§8) This assay quantifies the interaction of a KRAS mutant protein (e.g., G12V) with the CRAF Ras-binding domain (RBD). […]

[4] = biological target: KRAS (G12D)/CRAF (Homo sapiens (Human), UniProt P01116, G12D); assay: TR-FRET biochemical KRAS:CRAF protein:protein interaction assay, KRAS (G12D); format: binding; details: GMPPNP loaded Biotin-KRAS (G12D), FLAG CRAF RBD; read-out: TR-Fret_PPI KRAS (G12D)/CRAF IC50
Protocol: as §1, §2, §3, §4, §5, §6, §7, §8

[5] = NCI-H441, pERK HTRF, NCI-H441 cells (KRAS G12V)
[6] = NCI-H441, cellular pERK (Thr202/Tyr204) HTRF, NCI-H441 cells

Chain of KRAS (G12D)/CRAF (P01116-2 other isoform, or with tags, fused parts or gaps G12D): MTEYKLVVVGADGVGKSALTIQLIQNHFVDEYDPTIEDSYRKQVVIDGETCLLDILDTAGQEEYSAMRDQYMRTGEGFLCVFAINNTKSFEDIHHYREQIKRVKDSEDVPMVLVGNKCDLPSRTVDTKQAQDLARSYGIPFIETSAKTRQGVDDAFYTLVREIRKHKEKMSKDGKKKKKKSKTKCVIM
Chain of KRAS (G12V)/CRAF (P01116-2 other isoform, or with tags, fused parts or gaps G12V): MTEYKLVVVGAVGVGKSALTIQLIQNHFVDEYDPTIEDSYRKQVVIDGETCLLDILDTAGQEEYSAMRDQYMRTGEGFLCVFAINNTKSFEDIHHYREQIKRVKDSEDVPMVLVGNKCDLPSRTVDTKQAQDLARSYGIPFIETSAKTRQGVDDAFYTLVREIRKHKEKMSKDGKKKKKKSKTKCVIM

## [2H]C([2H])(Oc1nc(N2CCCO[C@H]3C(F)[C@H]32)c2cnc(-c3cc(N)cc4ccc(F)c(C#C)c34)c(F)c2n1)[C@@]12CCCN1C[C@H](F)C2 (stereo in doubt) [Example 89, 5-Ethynyl-6-fluoro-4-(8-fluoro-4-((1R,7S,8R)-8-fluoro-2-oxa-6-azabicyclo[5.1.0]octan-6-yl)-2-(((2R,7aS)-2-fluorotetrahydro-1H-pyrrolizin-7a(5H)-yl)methoxy-d2)pyrido[4,3-d]pyrimidin-7-yl)naphthalen-2-amine]
[1]
  IV (dose 2 mg/kg) (AUC/D) (h*mg/mL): 323
  PO (dose 10 mg/kg) (AUC/D) (h*mg/mL): 22
[2]; [5]
  IC50: < 50 nM

## [2H]C([2H])(Oc1nc(N2CCCO[C@H]3[C@H](F)[C@H]32)c2cnc(-c3cc(N)cc4cc(F)c(F)c(C#C)c34)c(F)c2n1)[C@@]12CCCN1C[C@H](F)C2 [Example 24, 5-Ethynyl-6,7-difluoro-4-(8-fluoro-4-((1R,7S,8R)-8-fluoro-2-oxa-6-azabicyclo[5.1.0]octan-6-yl)-2-(((2R,7aS)-2-fluorotetrahydro-1H-pyrrolizin-7a(5H)-yl)methoxy-d2)pyrido[4,3-d]pyrimidin-7-yl)naphthalen-2-amine]
[1]
  IV (dose 2 mg/kg) (AUC/D) (h*mg/mL): 405
  PO (dose 10 mg/kg) (AUC/D) (h*mg/mL): 35
[2]; [5]
  IC50: < 50 nM

## [2H]C([2H])([2H])Oc1c(F)ccc2cc(N)cc(-c3ncc4c(N5CCCC[C@H]6[C@H](F)[C@H]65)nc(OC([2H])([2H])[C@@]56CCCN5C[C@H](F)C6)nc4c3F)c12 [Example 58, 6-Fluoro-4-(8-fluoro-4-((1S,7R,8S)-8-fluoro-2-azabicyclo[5.1.0]octan-2-yl)-2-(((2R,7aS)-2-fluorotetrahydro-1H-pyrrolizin-7a(5H)-yl)methoxy-d2)pyrido[4,3-d]pyrimidin-7-yl)-5-(methoxy-d3)naphthalen-2-amine]
[1]
  IV (dose 2 mg/kg) (AUC/D) (h*mg/mL): 1401
  PO (dose 10 mg/kg) (AUC/D) (h*mg/mL): 432
[2]; [5]
  IC50: < 50 nM

## [2H]C([2H])(Oc1nc(N2CCOC[C@H]3[C@H](Cl)[C@H]32)c2cnc(-c3cc(N)cc4ccc(F)c(C#C)c34)c(F)c2n1)[C@@]12CCCN1[C@H](C)[C@H](F)C2 [Example 340, 4-(4-((1S,7S,8S)-8-Chloro-5-oxa-2-azabicyclo[5.1.0]octan-2-yl)-8-fluoro-2-(((2R,3R,7aS)-2-fluoro-3-methyltetrahydro-1H-pyrrolizin-7a(5H)-yl)methoxy-d2)pyrido[4,3-d]pyrimidin-7-yl)-5-ethynyl-6-fluoronaphthalen-2-amine]
[3]
  IC50: 50.1 nM
[4]
  IC50: 7.14 nM
[2]; [6]
  IC50: < 50 nM

## [2H]C([2H])(Oc1nc(N2CCCC[C@@H]3[C@@H](Cl)[C@@H]32)c2cnc(-c3cc(N)cc4ccc(F)c(C#C)c34)c(F)c2n1)[C@@]12CCCN1C[C@H](F)C2 [Example 341, 4-(4-((1R,7S,8R)-8-chloro-2-azabicyclo[5.1.0]octan-2-yl)-8-fluoro-2-(((2R,7aS)-2-fluorotetrahydro-1H-pyrrolizin-7a(5H)-yl)methoxy-d2)pyrido[4,3-d]pyrimidin-7-yl)-5-ethynyl-6-fluoronaphthalen-2-amine]
[3]
  IC50: ≥ 10000 nM
[4]
  IC50: 1790 nM
[2]; [6]
  IC50: 500 to 10000 nM

## [2H]C([2H])(Oc1nc(N2CCCC[C@H]3[C@H](Cl)[C@H]32)c2cnc(-c3cc(N)cc4ccc(F)c(C#C)c34)c(F)c2n1)[C@@]12CCCN1C[C@H](F)C2 [Example 342, 4-(4-((1S,7R,8S)-8-chloro-2-azabicyclo[5.1.0]octan-2-yl)-8-fluoro-2-(((2R,7aS)-2-fluorotetrahydro-1H-pyrrolizin-7a(5H)-yl)methoxy-d2)pyrido[4,3-d]pyrimidin-7-yl)-5-ethynyl-6-fluoronaphthalen-2-amine]
[3]
  IC50: 54.7 nM
[4]
  IC50: 9.04 nM
[2]; [6]
  IC50: < 50 nM

## [2H]C([2H])(Oc1nc(N2CCCC[C@@H]3[C@H](Cl)[C@@H]32)c2cnc(-c3cc(N)cc4ccc(F)c(C#C)c34)c(F)c2n1)[C@@]12CCCN1C[C@H](F)C2 [Example 343, 4-(4-((1R,7S,8S)-8-chloro-2-azabicyclo[5.1.0]octan-2-yl)-8-fluoro-2-(((2R,7aS)-2-fluorotetrahydro-1H-pyrrolizin-7a(5H)-yl)methoxy-d2)pyrido[4,3-d]pyrimidin-7-yl)-5-ethynyl-6-fluoronaphthalen-2-amine]
[3]
  IC50: ≥ 10000 nM
[4]
  IC50: 3000 nM
[2]; [6]
  IC50: 500 to 10000 nM

## [2H]C([2H])(Oc1nc(N2CCCC[C@H]3[C@@H](Cl)[C@H]32)c2cnc(-c3cc(N)cc4ccc(F)c(C#C)c34)c(F)c2n1)[C@@]12CCCN1C[C@H](F)C2 [Example 344, 4-(4-((1S,7R,8R)-8-chloro-2-azabicyclo[5.1.0]octan-2-yl)-8-fluoro-2-(((2R,7aS)-2-fluorotetrahydro-1H-pyrrolizin-7a(5H)-yl)methoxy-d2)pyrido[4,3-d]pyrimidin-7-yl)-5-ethynyl-6-fluoronaphthalen-2-amine]
[3]
  IC50: ≥ 10000 nM
[4]
  IC50: 1930 nM
[2]; [6]
  IC50: 500 to 10000 nM
